US20090175805A1, “Neuraminidase Inhibitors and uses thereof” (priority 2006, published 2009)

Legend:
PAO1 biofilm formation = experiment: Biofilm assay, crystal violet staining in 96-well microtiter plates; assay type: cell-based, P. aeruginosa; details: various concentrations of inhibitor, absorbance at 540 nm
Method: An overnight culture of bacteria grown in LB with shaking was diluted 1:100, and 100 μl aliquots added to 96-well microtiter plates incubated for 24-48 hours at 37° C. (O'Toole et al., (2000) J. Bacteriol. 182:425-431; O'Toole et al., (2000) Annu. Rev. Microbiol. 54:49-79). 0.1% crystal violet was added to each well for 15 minutes, rinsed three times with water then released with the addition of 200 μl of 95% ethanol. Absorbance was determined at 540 nm. For experiments with inhibitors, the following modifications in the assay were used: for oseltamivir (Tamiflu) (Roche, Nutley, N.J.), an overnight culture of bacteria was diluted 1:100 in different doses of inhibitor in LB and 100 μl aliquots plated and assayed as above; for peramivir (BioCryst, Birmingham, Ala.), an overnight culture of bacteria was diluted 1:100 in different doses of inhibitor in LB and incubated at room temperature for 48 hours then diluted 1:2 in LB and 100 μl aliquots plated and assayed as above (McKimm-Breschkin et al., (2003) Antimicrob. Agents. Chemother. 47:2264-2272; Sidwell et al., (2002) Expert Opin. Investig. Drugs 11:859-869). Each sample was tested in sextuplicate and the assay was repeated on three separate occasions and representative data shown. A mean and standard deviation were calculated and statistical significance determined using a two-tailed unpaired t test (Graph Pad Instat version 3.0, Graphpad Software, San Diego, Calif.) to test the null hypothesis that there was no difference in the amount of biofilm production under each test condition, as compared to the media alone or untreated control.

V. cholera neuraminidase = molecular target: T1, V. cholera neuraminidase (Vibrio cholerae serotype O1, UniProt P0C6E9); experiment: Neuraminidase assay with fluorescent substrate 2'-(4-methylumbelliferyl)-α-D-N-acetylneuraminic acid; assay type: biochemical; details: peramivir 0.25 and 2.5 μM; 24-48 hours; fluorescence ex 360 nm / em 465 nm
T1 construct: purchased Calbiochem, San Diego, Calif
T1 sequence (P0C6E9 25-781): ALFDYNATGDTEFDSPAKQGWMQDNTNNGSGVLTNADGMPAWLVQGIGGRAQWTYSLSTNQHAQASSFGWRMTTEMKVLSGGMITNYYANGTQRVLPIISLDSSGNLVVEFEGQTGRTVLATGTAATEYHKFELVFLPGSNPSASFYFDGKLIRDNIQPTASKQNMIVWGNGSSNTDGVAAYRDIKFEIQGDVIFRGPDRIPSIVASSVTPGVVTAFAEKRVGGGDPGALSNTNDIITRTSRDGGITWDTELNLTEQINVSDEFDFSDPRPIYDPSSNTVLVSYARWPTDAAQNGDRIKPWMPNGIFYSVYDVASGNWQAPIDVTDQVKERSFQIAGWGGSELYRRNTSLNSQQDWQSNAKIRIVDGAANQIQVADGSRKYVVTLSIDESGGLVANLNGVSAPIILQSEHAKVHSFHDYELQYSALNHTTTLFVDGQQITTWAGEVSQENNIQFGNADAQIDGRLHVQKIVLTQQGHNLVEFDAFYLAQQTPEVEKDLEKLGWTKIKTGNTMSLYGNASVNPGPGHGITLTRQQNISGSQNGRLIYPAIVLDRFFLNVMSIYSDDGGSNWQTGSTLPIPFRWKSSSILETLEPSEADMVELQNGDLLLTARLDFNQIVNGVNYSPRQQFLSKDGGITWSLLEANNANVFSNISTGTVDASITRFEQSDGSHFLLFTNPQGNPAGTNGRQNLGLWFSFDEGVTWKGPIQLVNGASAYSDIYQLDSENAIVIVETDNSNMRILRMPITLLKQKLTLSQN
Method: (§1) The PAO1 enzyme (10 μg/ml) was overexpressed and purified from E. coli using the pET28a vector (Novagen, San Diego, Calif.) and a control V. cholera neuraminidase (0.1 U/ml) (Calbiochem, San Diego, Calif.) were incubated with the fluorescent substrate 2′-(4-methylumbelliferyl)-α-D-N-acetylneuraminic acid (Sigma-Aldrich, St. Louis, Mo.) (25 μM in 0.9% NaCl) with or without peramivir (0.25 and 2.5 μM) for 24-48 hours and fluorescence read at excitation 360 nm and emission 465 nm. Each data point was performed in sextuplicate. A mean and standard deviation were calculated and statistical significance determined using a one-way analysis of variance with Bonferroni's post test (Graph Pad Instat version 3.0, Graphpad Software, San Diego, Calif.) to test the null hypothesis that there was no difference in the amount of fluorescence under each test condition, as compared to the untreated control.

[1] = test system: PAO1 enzyme (P. aeruginosa PAO1 neuraminidase); experiment: as above; assay type: biochemical; details: peramivir 0.25 and 2.5 μM; 24-48 hours; fluorescence ex 360 nm / em 465 nm
Method: as §1

| SMILES | inhibition of biofilm production by PAO1 (PAO1 biofilm formation) | inhibition of neuraminidase activity (V. cholera N'ase) (V. cholera neuraminidase) | inhibition of neuraminidase activity (PAO1 N'ase) [1] |
| --- | --- | --- | --- |
| CC(=O)N[C@H]1[C@H]([C@H](O)[C@H](O)CO)OC(C(=O)O)=C[C@@H]1N=C(N)N [zanamivir] | dose dependent inhibition of biofilm production | – | – |
| CCOC(=O)C1=C[C@@H](OC(CC)CC)[C@H](NC(C)=O)[C@@H](N)C1 [oseltamivir] | dose dependent inhibition of biofilm production | – | – |
| CCC(CC)[C@H](NC(C)=O)[C@@H]1[C@H](O)[C@@H](C(=O)O)C[C@H]1N=C(N)N [peramivir] | dose dependent inhibition of biofilm production | inhibited | inhibited |
